The target of this assay is human enteropeptidase (hEP), enterokinase (Homo sapiens, UniProt P98073). Nature of the assay: cryo-EM structure of inhibited hEP-core ([…] Å); SPR affinity; enzyme activity inhibition. Format: binding. The arrangement: gene TMPRSS15; hEP-core resolved; SPR: commercial hEP.

Each structure is given as a SMILES string.

In publication PMC9663175, “Cryo-EM structures reveal the activation and substrate recognition mechanism of human enteropeptidase” (Nature Communications, 2022) one finds Kd data, which are given here for one compound.

human enteropeptidase (hEP), enterokinase, sequence (P98073 182-784): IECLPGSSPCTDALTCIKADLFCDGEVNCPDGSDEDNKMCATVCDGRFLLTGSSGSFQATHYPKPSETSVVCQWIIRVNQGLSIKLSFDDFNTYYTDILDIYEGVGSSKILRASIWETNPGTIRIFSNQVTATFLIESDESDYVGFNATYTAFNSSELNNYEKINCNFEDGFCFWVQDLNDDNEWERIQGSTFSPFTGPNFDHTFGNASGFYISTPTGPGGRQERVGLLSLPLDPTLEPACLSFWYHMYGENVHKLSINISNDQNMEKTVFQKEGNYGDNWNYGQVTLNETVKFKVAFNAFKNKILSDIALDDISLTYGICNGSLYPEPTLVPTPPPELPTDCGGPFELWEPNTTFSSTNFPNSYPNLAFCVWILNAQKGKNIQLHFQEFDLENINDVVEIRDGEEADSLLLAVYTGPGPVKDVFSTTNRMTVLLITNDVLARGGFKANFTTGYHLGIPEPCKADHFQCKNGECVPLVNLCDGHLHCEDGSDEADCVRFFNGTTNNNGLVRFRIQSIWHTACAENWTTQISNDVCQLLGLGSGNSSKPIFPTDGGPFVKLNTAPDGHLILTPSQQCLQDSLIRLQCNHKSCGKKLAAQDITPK
human enteropeptidase (hEP), enterokinase, sequence (P98073 785-1019): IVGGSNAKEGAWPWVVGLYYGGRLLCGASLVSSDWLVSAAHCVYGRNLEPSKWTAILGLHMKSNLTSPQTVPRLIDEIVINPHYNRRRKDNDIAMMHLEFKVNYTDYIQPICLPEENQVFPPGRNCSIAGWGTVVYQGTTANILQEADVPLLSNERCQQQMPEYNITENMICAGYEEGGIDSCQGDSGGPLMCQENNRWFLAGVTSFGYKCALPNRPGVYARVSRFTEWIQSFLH

Take `N=C(N)c1ccc2cc(OC(=O)c3ccc(N=C(N)N)cc3)ccc2c1` [nafamostat]: the dissociation constant (Kd) was found to be 95.1 µM.
